Key:
[1] = test system: rat lung epithelial cells RL6TN; test: yH2AX Western blot (DNA damage) in cells transduced with lentiviral peptide expression vectors; format: cell-based; settings: 6 hours, relative to β-actin, normalised to CT
Experimental: In the experiment shown in Figure 1, rat lung epithelial cells RL6TN were transduced with lentiviral vectors directing the expression of the peptides under study and the corresponding controls. The presence of γH2AX was then determined by means of Western blot assays.
(§1) RL6TN cells were transduced with lentiviral vectors directing the expression of the different peptides under study (sequences derived from pCCL-hPGK.GSE4.wPREchim, SEQ ID NO. 62, in which the oligonucleotides corresponding to each peptide, shown in Table 4, SEQ ID Nos: 46-60, have been included between restriction sites Sall and Xbal) or of the GFP protein (green fluorescent protein) (PGK-EGFP sequence, SEQ ID NO. 63) as negative control. 600,000 non-transduced (control, CT) cells or cells transduced with the different lentiviral vectors were cultured for 6 hours in the absence (Panel A) or presence of 4 µg/mL of bleomycin (Merck, Burlington, MA. USA) (Panel B). After this culture period, the cells were lysed and the amount of yH2AX was determined by means of Western blot using an yH2AX-specific antibody (Cell Signalling Technology, Danvers, MA, USA). Expression of the β-actin protein as loading control was simultaneously determined using a specific antibody (Santa Cruz Biotechnology, Dallas, TX, USA). Protein expression was quantified using a luminometer. The expression of yH2AX in each sample was calculated based on the amount of β-actin. These relative values were normalised to the value corresponding to control cells not treated with bleomycin.

[2] = test system: HaCaT cells; test: TERT and TERC mRNA expression by quantitative PCR in transduced cells; format: cell-based, human; settings: corrected by GAPDH, normalised to CT; for expression of Terc: p<0.001 for P3 only, Figure 3D; for expression of TERT: p<0.01 for both peptides, Figure 3C
Excerpt: (§2) RNA was isolated from control cells or cells transduced with vectors expressing GFP or the GSE4 and P3 peptides. The corresponding cDNAs, which were used to determine the expression levels of the mRNA encoding TERT (Figure 3, panels A and C) and TERC (Figure 3, panels B and D) by means of quantitative PCR, were synthesised from these RNAs. Expression levels were corrected by levels corresponding to the mRNA encoding GAPDH, used as a control. Relative values were normalised with respect to values obtained for non-transduced control cells (CT). Panels A and B show the results obtained for RL6TN cells and panels C and D show the results corresponding to HaCaT cells.
The results obtained for HaCaT cells are depicted in Figures 3C and 3D where oligonucleotides corresponding to SEQ ID Nos: 21, 22 for TERT, SEQ ID Nos: 25, 26 for TERC, and SEQ ID Nos: 41, 42 for GAPDH were used. […] This difference is statistically significant for both peptides in the case of TERT (**, p<0.01, ANOVA test and Dunnett's post-hoc test) and for the P3 peptide in the case of TERC (***, p<0.001, ANOVA test and Dunnett's post-hoc test).

[3] = test system: RLE6TN cells; test: as above; format: cell-based, rat; settings: corrected by GAPDH, normalised to CT; for expression of Tert mRNA: Figure 3A; for expression of Terc: p<0.05, Figure 3B
Excerpt: as §2
For assays performed in RLE6TN cells, shown in Figures 3A and 3B, oligonucleotides corresponding to SEQ ID Nos: 23, 24 for TERT, SEQ ID Nos:27, 28 for TERC, and SEQ ID Nos:43, 44 for GAPDH were used in quantitative PCR assays.

[4] = test system: RLE6TN cells; test: TGFβ-induced expression of TGFβ receptor and MCP1 mRNA (epithelial/mesenchymal transition), quantitative PCR; format: cell-based, rat; settings: 5 ng/mL TGFβ, 48 of culture; for induction of expression of Mcp1 mRNA after incubating the cells with TGFβ: p<0.01 for P3 and GSE4, Figure 4A; for induction of expression of Tgfbr1 mRNA after incubating the cells with TGFβ: p<0.05 for P3, Figure 4A
Excerpt: (§3) The ageing of some tissues is accompanied by fibrotic processes in which fibroblasts and myofibroblasts accumulate and in which epithelial/mesenchymal transition of epithelial cells is induced. This process occurs, for example, in idiopathic pulmonary fibrosis and in fibrosis processes as a result of skin exposure to ionising radiation. Many of these processes are mediated by the secretion of the cytokine TGFβ (transforming growth factorβ). The possible effect of the peptides on these processes was studied by incubating cells with TGFβ (R&D Systems, Bio-Techne, Minneapolis; MN, USA) and studying the expression of two mRNAs induced by this cytokine, i.e., the TGFβ receptor (TGFβR1/2) and the cytokine MCP1 (also referred to as CCL2) by means of reverse transcription of RNA and quantitative PCR.
(§4) Control cells or cells transduced with GFP expression vectors, or the GSE4 and P3 peptides were cultured in the absence or presence of a concentration of 5 ng/mL of the TGFβ factor (identified with the symbol + in Figure 4) to induce epithelial/mesenchymal transition. After 48 of culture, RNA was obtained from the cells and converted into cDNA by means of reverse transcription. The expression levels of the mRNA encoding TGFBR-1/2 (TGFβ-receptor 1 or 2) and MCP1 (monocyte chemoattractant protein-1, also referred to as CCL2: C-C motif chemokine ligand 2) were determined by quantitative PCR. The values obtained were corrected by those corresponding to the control mRNA (GAPDH) and normalised by the expression in control cells (CT).
(§5) In the assays shown in Figures 4A, for RLE6TN cells, oligonucleotides SEQ ID Nos 31 and 32 for TGFBR1, 35 and 36 for MCP1, and 43 and 44 for GAPDH were used in quantitative PCR. To obtain the results shown in Figure 4B, for HaCaT cells, oligonucleotides SEQ ID Nos: 29 and 30 for TGFBR2, SEQ ID Nos: 33 and 34 for MCP1, and SEQ ID Nos: 41y 42 for GAPDH b were used.

[5] = test system: HaCaT cells; test: as above; format: cell-based, human; settings: 5 ng/mL TGFβ, 48 of culture; for induction of expression of TGFBR2 mRNA after incubating the cells with TGFβ: Figure 4B; for induction of expression of MCP1 mRNA after incubating the cells with TGFβ: p<0.05 for P3, Figure 4B
Excerpt: as §3, §4, §5

[6] = test system: RLE6TN cells; test: IL-6 mRNA expression by quantitative PCR in transduced cells; format: cell-based, rat; settings: Figure 5A
Experimental: (§6) Another important component of tissue ageing is the production of pro-inflammatory interleukins that induce the presence of basal inflammation in tissues. This inflammatory situation also occurs in some diseases of premature ageing and in response to environmental aggressions. Interleukin-6 (IL-6) is one of the main pro-inflammatory molecules and, for this reason, the possible effect of the expression of the peptides on the synthesis of this molecule was determined. In these experiments, the expression of the mRNA encoding IL-6 in cells transduced with the expression vectors of the P3 peptide and controls was determined.
(§7) RNA was obtained from RL6TN cells (Figure 5, panel A) or HaCaT cells (Figure 5, panel B) not transduced (CT) or transduced with lentiviral vectors expressing GFP or the GSE4 or P3 peptides. cDNA was synthesised from each RNA by reverse transcription and the amount of mRNA encoding IL-6 was quantified by quantitative PCR as described in Examples 2 and 3 above.
(§8) The obtained results are shown in Figures 5A (RLE6TN cells) and 5B (HaCaT cells). In the assays with RLE6TN cells, oligonucleotides with SEQ ID Nos: 39 and 40 for IL-6 and SEQ ID Nos: 43 and 44 for GAPDH were used for quantitative PCRs. In the assay performed with HaCaT cells, oligonucleotides with SEQ ID Nos: 37 and 38 for IL-6 and SEQ ID Nos: 41 and 42 for GAPDH were used.

[7] = test system: HaCaT cells; test: yH2AX Western blot (DNA damage signalling) in transduced keratinocytes; format: cell-based, human; settings: 6 hours
Excerpt: as §1
DNA damage signalling studies were reproduced in human skill keratinocyte cell line HaCaT. This cell line is often used to study skin's response to environmental and pathogenic agents. HaCaT cells were transduced with lentiviral vectors which allow the expression of the P3 peptide, the GSE4 peptide, as a positive control, or GFP as a negative control. 100,000 non-transduced (CT) cells or cells transduced with the various peptides were cultured in the absence (Figure 2A) or presence of 50 µg/mL of bleomycin (Figure 2B) for 6 hours. Subsequently, the cells were lysed and the amount of yH2AX present in the extracts was determined by Western Blot in the same way as indicated for the assays in RL6TN cells described above.

[8] = test system: HaCaT cells; test: IL-6 mRNA expression by quantitative PCR in transduced cells; format: cell-based, human; settings: Figure 5B
Experimental: as §6, §7, §8

[9] = 4 µg/mL of bleomycin, Figure 1B
[10] = culture control conditions (absence of bleomycin), Figure 1A
[11] = baseline damage (absence of bleomycin), Figure 2A

Sequence	levels of yH2AX [1, 9]	levels of yH2AX [1, 10]	expression of Terc [2]	expression of TERT [2]	expression of Tert mRNA [3]	expression of Terc [3]	induction of expression of Mcp1 mRNA after incubating the cells with TGFβ [4]	induction of expression of Tgfbr1 mRNA after incubating the cells with TGFβ [4]	induction of expression of TGFBR2 mRNA after incubating the cells with TGFβ [5]	induction of expression of MCP1 mRNA after incubating the cells with TGFβ [5]	expression of IL-6 mRNA [6]	DNA damage signalling (amount of yH2AX) ([7]; 50 µg/mL of bleomycin, Figure 2B)	DNA damage signalling (amount of yH2AX) [7, 11]	expression of IL-6 mRNA [8]
DKPSNPSSHE [P3, GSE24.2-derived peptide of 10 amino acids, expressed in cells from a lentiviral vector]	causes a decrease in the levels of yH2AX	causes a decrease in the levels of yH2AX	caused an increase	caused an increase	an increase was also observed	significant increase	decreases the induction of expression of both markers	decreases the induction of expression of both markers	decreases the induction of expression of both markers	decreases the induction of expression of both markers	decreased the expression of IL-6 mRNA	reduces DNA damage signalling	reduces DNA damage signalling	decreased the expression of IL-6 mRNA
GFINLDKPSNP [GSE4, reference compound]	This decrease is greater than that caused by the expression of the GSE4 peptide	This decrease is greater than that caused by the expression of the GSE4 peptide	caused an increase	caused an increase	an increase was also observed	significant increase	also causes this inhibitory effect of the response to TGFβ	also causes this inhibitory effect of the response to TGFβ	also causes this inhibitory effect of the response to TGFβ	also causes this inhibitory effect of the response to TGFβ	decreased the expression of IL-6 mRNA	–	the reduction is greater than that caused by the expression of GSE4	decreased the expression of IL-6 mRNA
